Test results: patent US20100210836A1, “SMALL MOLECULE INHIBITORS OF LYMPHOID TYROSINE PHOSPHATASE” (University of Southern California, priority 2009, published 2010)
Where two headings read alike, the source gives them in different places.

What was measured:
PTP-PEST = target: T1, PTP-PEST (Homo sapiens, UniProt Q05209); experiment: Counter-screen phosphatase assay PTP-PEST; type: biochemical; settings: read-out: PEST IC50
T1 sequence (Q05209 2-323): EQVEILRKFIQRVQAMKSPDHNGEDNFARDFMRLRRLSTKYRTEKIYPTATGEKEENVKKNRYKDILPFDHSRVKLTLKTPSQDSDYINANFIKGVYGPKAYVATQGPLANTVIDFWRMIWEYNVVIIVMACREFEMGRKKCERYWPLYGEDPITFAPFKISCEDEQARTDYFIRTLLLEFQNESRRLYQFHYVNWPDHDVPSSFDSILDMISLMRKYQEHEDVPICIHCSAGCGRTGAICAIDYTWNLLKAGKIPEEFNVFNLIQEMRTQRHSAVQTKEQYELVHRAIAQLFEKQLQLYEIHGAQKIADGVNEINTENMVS

LYP/PTPN22 = target: T2, LYP/PTPN22 (Homo sapiens, UniProt Q9Y2R2); experiment: biochemical
T2 construct: catalytic domains of LYP (aa 2-309) and PTP-PEST (aa 2-323, PEST); 6xHis (N, cleaved yes); made in house; host or cells: E. coli BL21
T2 sequence (Q9Y2R2 2-309): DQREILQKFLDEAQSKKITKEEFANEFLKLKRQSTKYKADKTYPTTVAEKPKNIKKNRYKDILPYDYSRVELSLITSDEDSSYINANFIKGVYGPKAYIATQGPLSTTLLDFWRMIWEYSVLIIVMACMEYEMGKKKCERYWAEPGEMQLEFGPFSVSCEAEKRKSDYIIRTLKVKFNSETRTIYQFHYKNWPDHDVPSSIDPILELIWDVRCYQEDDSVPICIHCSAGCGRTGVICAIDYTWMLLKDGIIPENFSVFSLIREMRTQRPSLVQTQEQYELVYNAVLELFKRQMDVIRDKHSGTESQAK
Description: Chemical Library Screening for LYP Inhibitors. A library consisting of a highly diverse set of 4,000 compounds was screened in a 96-well format in an assay specific for LYP activity. […] The reaction mixture with the compounds was incubated for 25 min at 37° C. […] All assays were done in triplicate. The IC50 values were then determined for each drug from a plot of log [drug concentration] versus percentage of enzyme inhibition. Absorbance data were measured using a Molecular Devices Emax Precision Microplate reader.
Identification of Compounds as LYP Inhibitors. We initially screened a library of 4000 drug-like small-molecule compounds against LYP/PTPN22, using p-nitrophenyl phosphate (pNPP) as a substrate. The ability of the library members to inhibit LYP/PTPN22 catalyzed hydrolysis of pNPP was measured in a buffer containing 50 mM Bis-Tris pH 6.0, 1 mM DTT at 37° C.

[1] = LYP IC50, Table IV, analogues of E3P13
[2] = selectivity, ratio PEST IC50 / LYP IC50, Table IV
[3] = Table IV, analogues of E3P13, read-out: LYP IC50

Row | IC50 (PTP-PEST) | IC50 (LYP/PTPN22; [1]) | SMILES | also measured
1 | 26.5 µM |  | Cc1ccc2[nH]c(=O)c([C@H](c3nnnn3C3CCCC3)N3CCC[C@@H](C)C3)cc2c1 [compound 24] | 
2 |  | > 40 µM | COc1ccc2cc([C@H](c3nnnn3CC3CCCC3)N3CCCC4(CCCCC4)C3)c(=O)[nH]c2c1 [compound 55] | 
3 |  | > 40 µM | Cc1cccc2cc([C@H](c3nnnn3CC3CCCC3)N3CCCC4(CCCCC4)C3)c(=O)[nH]c12 [compound 51] | 
4 |  | > 40 µM | Cc1ccc2[nH]c(=O)c([C@H](c3nnnn3C3CCCC3)N3CCN4CCC[C@H]4C3)cc2c1 [compound 57] | 
5 | 15.2 µM | 12.9 µM | Cc1cc(C)c2[nH]c(=O)c([C@@H](c3nnnn3Cc3ccccc3)N3CCCC4(CCCCC4)C3)cc2c1 [compound 14] | PEST_LYP (LYP/PTPN22; [2]): 1.18
6 | 80.3 µM | 31.9 µM | Cc1ccc2cc([C@H](c3nnnn3C3CCCC3)N3CCC[C@@H](C)C3)c(=O)[nH]c2c1 [compound 43] | PEST_LYP (LYP/PTPN22; [2]): 2.52
7 | 13.7 µM | 19.3 µM | COc1ccc2cc([C@H](c3nnnn3Cc3ccccc3)N3CCCC4(CCCCC4)C3)c(=O)[nH]c2c1 [compound 27] | PEST_LYP (LYP/PTPN22; [2]): 0.71
8 | 20.1 µM | 11.9 µM | CCC(C)(C)n1nnnc1[C@@H](c1cc2cc(C)cc(C)c2[nH]c1=O)N1CCCC2(CCCCC2)C1 [compound 12] | PEST_LYP (LYP/PTPN22; [2]): 1.69
9 | 34.2 µM | 21.4 µM | CCC(C)(C)n1nnnc1[C@@H](c1cc2ccc(C)cc2[nH]c1=O)N1CCCC2(CCCCC2)C1 [compound 34] | PEST_LYP (LYP/PTPN22; [2]): 1.6
10 | 68.5 µM | 32.5 µM | Cc1ccc2cc([C@@H](c3nnnn3C3CCCC3)N3CCCCC3)c(=O)[nH]c2c1 [compound 44] | PEST_LYP (LYP/PTPN22; [2]): 2.11
11 | 15.1 µM | 11.1 µM | Cc1ccc2[nH]c(=O)c([C@@H](c3nnnn3Cc3ccccc3)N3CCCC4(CCCCC4)C3)cc2c1 [compound 11] | PEST_LYP (LYP/PTPN22; [2]): 1.36
12 | 28.2 µM | 21.2 µM | Cc1ccc2[nH]c(=O)c([C@H](c3nnnn3C(C)(C)C)N3CCCC4(CCCCC4)C3)cc2c1 [compound 33] | PEST_LYP (LYP/PTPN22; [2]): 1.33
13 | 27.1 µM | 20.3 µM | Cc1ccc2cc([C@H](c3nnnn3C(C)(C)C)N3CCCC4(CCCCC4)C3)c(=O)[nH]c2c1 [compound 29] | PEST_LYP (LYP/PTPN22; [2]): 1.33
14 | 15.9 µM | 10.4 µM | CCC(C)(C)n1nnnc1[C@@H](c1cc2cc(C)ccc2[nH]c1=O)N1CCCC2(CCCCC2)C1 [compound 9] | PEST_LYP (LYP/PTPN22; [2]): 1.53
15 |  | > 40 µM | Cc1ccc2[nH]c(=O)c([C@@H](c3nnnn3C3CCCC3)N3CCOCC3)cc2c1 [compound 58] | 
16 |  | > 40 µM | Cc1cc(C)c2cc([C@H](c3nnnn3C3CCCC3)N3CCCCC3)c(=O)[nH]c2c1 [compound 70] | 
17 |  | > 40 µM | Cc1ccc2cc([C@@H](c3nnnn3C3CCCC3)N3CCCCC3)c(=O)[nH]c2c1C [compound 63] | 
18 |  | > 40 µM | COc1ccc2cc([C@@H](c3nnnn3C3CCCC3)N3CCCCC3)c(=O)[nH]c2c1 [compound 64] | 
19 |  | > 40 µM | Cc1ccc2[nH]c(=O)c([C@@H](c3nnnn3C3CCCC3)N3CCCC3)cc2c1 [compound 59] | 
20 |  | > 40 µM | Cc1ccc2[nH]c(=O)c([C@@H](c3nnnn3C3CCCC3)N3CCCCCC3)cc2c1 [compound 54] | 
21 |  | > 40 µM | Cc1ccc2[nH]c(=O)c([C@H](c3nnnn3C3CCCC3)N3CCC(O)CC3)cc2c1 [compound 78] | 
22 |  | > 40 µM | COc1ccc2cc([C@@H](c3nnnn3C3CCCC3)N3CCC(C)CC3)c(=O)[nH]c2c1 [compound 65] | 
23 |  | > 40 µM | Cc1ccc2cc([C@@H](c3nnnn3C3CCCC3)N3CCCCC3)c(=O)[nH]c2c1 [compound 68] | 
24 |  | > 40 µM | Cc1cccc2cc([C@@H](c3nnnn3C3CCCC3)N3CCCCC3)c(=O)[nH]c12 [compound 76] | 

Continued, molecule first:

Row | SMILES | IC50 (PTP-PEST) | IC50 (LYP/PTPN22; [1]) | also measured
25 | Cc1ccc2cc(C(c3nnnn3C3CCCC3)N(Cc3ccccc3)Cc3ccc(C(C)C)cc3)c(=O)[nH]c2c1 (stereo not drawn) [compound 4] | 9.96 µM |  | PEST_LYP (LYP/PTPN22): 1.31; IC50 (LYP/PTPN22; LYP IC50): 7.62 µM
26 | Cc1ccc2[nH]c(=O)c([C@H](c3nnnn3C3CCCC3)N(C)C3CCCCC3)cc2c1 [compound 53] |  | > 40 µM | 
27 | Cc1cccc2cc([C@H](c3nnnn3C3CCCC3)N3CCC[C@@H](C)C3)c(=O)[nH]c12 [compound 72] |  | > 40 µM | 
28 | Cc1ccc2[nH]c(=O)c([C@@H](c3nnnn3C3CCCC3)N3CCc4ccccc4C3)cc2c1 [compound 39] | 39 µM | 30.5 µM | PEST_LYP (LYP/PTPN22; [2]): 1.28
29 | CCN1CCN([C@H](c2cc3cc(C)ccc3[nH]c2=O)c2nnnn2C2CCCC2)CC1 [compound 52] |  |  | IC50 (LYP/PTPN22; [3]): > 40 µM
30 | Cc1ccc2cc(C(c3nnnn3C3CCCC3)N3CCN(C(c4ccccc4)c4ccccc4)CC3)c(=O)[nH]c2c1 (stereo not drawn) [compound 5] | 9.66 µM |  | PEST_LYP (LYP/PTPN22): 0.81; IC50 (LYP/PTPN22; LYP IC50): 7.86 µM
31 | COc1ccc2cc([C@H](c3nnnn3C3CCCC3)N3CCN(c4ccccc4)CC3)c(=O)[nH]c2c1 [compound 66] |  | > 40 µM | 
32 | COc1ccc2cc(C(c3nnnn3C3CCCC3)N3CCCC4(CCCCC4)C3)c(=O)[nH]c2c1 (stereo not drawn) [compound 26] | 31.7 µM |  | PEST_LYP (LYP/PTPN22): 1.74; IC50 (LYP/PTPN22; LYP IC50): 18.2 µM
33 | Cc1ccc2cc([C@H](c3nnnn3C3CCCC3)N3CCC[C@@H](C)C3)c(=O)[nH]c2c1C [compound 60] |  | > 40 µM | 
34 | Cc1ccc2cc(C(c3nnnn3C3CCCC3)N3CCCC4(CCCCC4)C3)c(=O)[nH]c2c1C (stereo not drawn) [compound 13] | 16.1 µM |  | PEST_LYP (LYP/PTPN22): 1.33; IC50 (LYP/PTPN22; LYP IC50): 12.1 µM
35 | Cc1ccc2[nH]c(=O)c([C@@H](c3nnnn3C3CCCC3)N(Cc3ccccc3)Cc3ccc(Cl)cc3)cc2c1 [compound 7] | 17 µM |  | 
36 | Cc1ccc2cc(C(c3nnnn3C3CCCC3)N3CCCC4(CCCCC4)C3)c(=O)[nH]c2c1 (stereo not drawn) [compound 21] | 21.8 µM |  | PEST_LYP (LYP/PTPN22): 1.43; IC50 (LYP/PTPN22; LYP IC50): 15.2 µM
37 | Cc1ccc2[nH]c(=O)c([C@H](c3nnnn3C3CCCC3)N3CCN(C4CCCCC4)CC3)cc2c1 [compound 73] |  |  | IC50 (LYP/PTPN22; [3]): > 40 µM
38 | O=c1[nH]c2ccccc2cc1[C@@H](c1nnnn1C1CCCC1)N1CCc2ccccc2C1 [compound 37] | 31.5 µM | 28 µM | PEST_LYP (LYP/PTPN22; [2]): 1.13
39 | Cc1cccc2cc([C@H](c3nnnn3C3CCCC3)N3CCN(C)CC3)c(=O)[nH]c12 [compound 75] |  | > 40 µM | 
40 | Cc1ccc2[nH]c(=O)c([C@H](c3nnnn3C3CCCC3)N3CCN(c4nc5ccccc5[nH]4)CC3)cc2c1 [compound 38] | 38.6 µM | 30.1 µM | PEST_LYP (LYP/PTPN22; [2]): 1.26

Row | SMILES | IC50 (PTP-PEST) | IC50 (LYP/PTPN22; [1]) | also measured
41 | COc1ccc(N2CCN([C@H](c3cc4cc(C)ccc4[nH]c3=O)c3nnnn3C3CCCC3)CC2)cc1 [compound 42] | 40.5 µM |  | PEST_LYP (LYP/PTPN22): 1.27; IC50 (LYP/PTPN22; LYP IC50): 31.7 µM
42 | Cc1cc(C)c2[nH]c(=O)c([C@H](c3nnnn3C3CCCC3)N3CCCCC3)cc2c1 [compound 61] |  | > 40 µM | 
43 | Cc1ccc2[nH]c(=O)c([C@H](c3nnnn3C3CCCC3)N3CCN(c4ccc(F)cc4)CC3)cc2c1 [compound 45] | 38 µM |  | 
44 | COc1ccccc1N1CCN([C@H](c2cc3cc(C)ccc3[nH]c2=O)c2nnnn2C2CCCC2)CC1 [compound 50] |  |  | IC50 (LYP/PTPN22; [3]): > 40 µM
45 | Cc1cc(C)c2cc(C(c3nnnn3C3CCCC3)N3CCCC4(CCCCC4)C3)c(=O)[nH]c2c1 (stereo not drawn) [compound 10] | 16 µM |  | PEST_LYP (LYP/PTPN22): 1.44; IC50 (LYP/PTPN22; LYP IC50): 11.1 µM
46 | Cc1ccc2[nH]c(=O)c([C@H](c3nnnn3C3CCCC3)N3CCN(Cc4ccccc4)CC3)cc2c1 [compound 77] |  |  | IC50 (LYP/PTPN22; [3]): > 40 µM
47 | Cc1ccc2[nH]c(=O)c([C@H](c3nnnn3C3CCCC3)N3CCN(c4ccc(O)cc4)CC3)cc2c1 [compound 74] |  |  | IC50 (LYP/PTPN22; [3]): > 40 µM
48 | Cc1ccc2[nH]c(=O)c([C@H](c3nnnn3C3CCCC3)N3CCN(C)CC3)cc2c1 [compound 56] |  |  | IC50 (LYP/PTPN22; [3]): > 40 µM
49 | Cc1ccc2[nH]c(=O)c(C(c3nnnn3C3CCCC3)N(Cc3ccccc3)Cc3ccc(C(C)C)cc3)cc2c1 (stereo not drawn) [compound 1] | 5.55 µM |  | 
50 | Cc1cc(C)c2[nH]c(=O)c([C@H](c3nnnn3C3CCCC3)N3CCC(C)CC3)cc2c1 [compound 62] |  | > 40 µM | 
51 | COc1ccc(N2CCN([C@H](c3cc4ccc(OC)cc4[nH]c3=O)c3nnnn3C3CCCC3)CC2)cc1 [compound 67] |  | > 40 µM | 
52 | Cc1cccc2cc([C@H](c3nnnn3C3CCCCC3)N3CCN(Cc4ccccc4)CC3)c(=O)[nH]c12 [compound 69] |  | > 40 µM | 
53 | COc1ccc(CN(Cc2ccccc2)[C@@H](c2cc3cc(C)ccc3[nH]c2=O)c2nnnn2C2CCCC2)cc1 [compound 15] | 15.1 µM |  | 
54 | Cc1cc(C)c2cc([C@H](c3nnnn3C3CCCC3)N3CCC(C)CC3)c(=O)[nH]c2c1 [compound 71] |  | > 40 µM | 
55 | CCOC(=O)C1CCN([C@H](c2cc3cc(C)ccc3[nH]c2=O)c2nnnn2C2CCCC2)CC1 [compound 79] |  | > 40 µM | 
56 | Cc1ccc2[nH]c(=O)c([C@H](c3nnnn3C3CCCC3)N3CCN(Cc4ccccc4)CC3)cc2c1 [compound 80] |  |  | IC50 (LYP/PTPN22; [3]): > 40 µM
